Series [1] is described as follows: Liver microsome intrinsic clearance (rat). The class given is in vitro ADME. As to conditions: pH 7.4; rat liver microsomes; read-out: LMS CLINT rat. Here is the method: After a 5 min preincubation, the reaction was initiated by the addition of NADPH (1 mM). At selected time intervals between 0 ~ 60 min (e.g. 0, 3, 7, 15, 25, 45 and/or 60 min), aliquots were taken and subsequently placed into a 96-well plate containing cold acetonitrile with an internal standard (50 ng/mL carbamazepine). Plates were then centrifuged at 3000 rcf (4 °C) for 10 min, and the supernatant was transferred to a separate 96-well plate and diluted 1:1 with water for LC/MS/MS analysis. The in vitro half-life (T 1/2, min, Eq. 1), intrinsic clearance (CLint, mL/min/kg, Eq. 2), and subsequent predicted hepatic clearance (CLhep, mL/min/kg, Eq. 3) were determined employing the following equations: […]
where k represents the slope from linear regression analysis of the natural log percent remaining of a test compound as a function of incubation time […]
(2) CLint = in vitroT1/2 x mg microsomes x gram liver x kg body wt ascale-up factors: of 20 (human) or 45 (rat) or 87.5 (mouse) […]
where Qh (hepatic blood flow, mL/min/kg) is 21 (human) or 70 (rat) or 90 (mouse).
LC/MS/MS Bioanalysis of Samples from Plasma Protein Binding and Intrinsic Clearance […]
Samples were analyzed on a Thermo Electron TSQ Quantum Ultra triple quad mass spectrometer (San Jose, CA) via electrospray ionization (ESI) with two Themo Electron Accella pumps (San Jose, CA), and a Leap Technologies CTC PAL autosampler (Carrboro, NC). Analytes were separated by gradient elution on a dual column system with two Thermo Hypersil Gold (2.1 x 30 mm, 1.9 µm) columns (San Jose, CA) thermostated at 40 °C. HPLC mobile phase A was 0.1% formic acid in water and mobile phase B was 0.1% formic acid in acetonitrile. The gradient started […]
for 0.2 min; returned to 10% B in 0.1 min. The total run time was 1.3 min and the HPLC flow rate was 0.8 mL/min. While pump 1 ran the gradient method, pump 2 equilibrated the alternate column isocratically at 10% B. Compound optimization, data collection, and processing were performed using Thermo Electron's QuickQuan software (v2.3) and Xcalibur (v2.0.7 SP1). […]
Background: Liver microsomes are a subcellular fraction often used to study metabolism.

For a further series, the target named is TREK-1 (Mus musculus, UniProt P97438). Nature of the series: Mouse manual patch clamp (MPC). The class given is cell-based. In general terms: The patch-clamp technique gives a direct electrical read-out from membranes.
Sequence of TREK-1 (P97438 whole entry): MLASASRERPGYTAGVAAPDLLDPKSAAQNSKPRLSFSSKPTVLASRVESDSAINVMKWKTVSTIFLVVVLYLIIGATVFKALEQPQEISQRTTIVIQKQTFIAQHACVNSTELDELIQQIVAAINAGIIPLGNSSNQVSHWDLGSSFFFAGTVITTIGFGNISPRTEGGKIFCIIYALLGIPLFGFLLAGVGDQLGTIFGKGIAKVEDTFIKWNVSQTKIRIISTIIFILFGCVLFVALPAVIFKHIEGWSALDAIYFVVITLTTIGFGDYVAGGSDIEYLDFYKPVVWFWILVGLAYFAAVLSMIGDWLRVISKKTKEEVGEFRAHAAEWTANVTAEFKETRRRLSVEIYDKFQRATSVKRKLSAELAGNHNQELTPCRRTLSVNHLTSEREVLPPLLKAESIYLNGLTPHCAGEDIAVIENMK
Another series deals with Kv1.5 (Homo sapiens, UniProt P22460). Kind of series: Cardiac ion channel MPC selectivity panel. The class given is cell-based.
Sequence of Kv1.5 (P22460 whole entry): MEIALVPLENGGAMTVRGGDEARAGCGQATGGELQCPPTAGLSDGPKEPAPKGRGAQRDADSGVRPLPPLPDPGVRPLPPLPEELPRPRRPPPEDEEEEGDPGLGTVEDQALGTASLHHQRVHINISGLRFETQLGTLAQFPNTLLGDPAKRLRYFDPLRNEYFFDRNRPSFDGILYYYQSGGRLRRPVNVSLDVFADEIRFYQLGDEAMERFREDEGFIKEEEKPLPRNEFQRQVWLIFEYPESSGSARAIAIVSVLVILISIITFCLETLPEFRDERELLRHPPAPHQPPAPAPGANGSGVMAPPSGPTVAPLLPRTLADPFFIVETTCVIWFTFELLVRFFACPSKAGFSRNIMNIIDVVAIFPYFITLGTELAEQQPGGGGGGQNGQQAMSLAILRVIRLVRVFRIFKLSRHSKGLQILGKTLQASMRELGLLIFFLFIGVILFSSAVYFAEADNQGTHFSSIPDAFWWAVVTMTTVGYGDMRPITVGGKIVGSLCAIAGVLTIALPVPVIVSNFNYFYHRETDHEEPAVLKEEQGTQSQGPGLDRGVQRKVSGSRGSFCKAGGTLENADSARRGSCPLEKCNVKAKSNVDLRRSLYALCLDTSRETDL
The nature of series [2]: Plasma protein binding (rat). The settings on record: pH 7.4, read-out: PPB rat. The class given is in vitro ADME. Here is the method: 0.3% DMSO - ΔRatio of 1 µM control compound)x100
In vitro Plasma protein binding and Brain homogenate binding: Determination of fraction unbound (f u) in plasma was conducted in vitro via equilibrium dialysis using HTDialysis (HTD) membrane plates. The top half of the plate was filled with 100 uL of Dubelco’s Phosphate Buffered Saline, pH 7.4 (DPBS). Compounds were diluted into plasma from each species (5 µM final concentration), which was aliquoted in triplicate to the ‘bottom half’ of the prepared HTD plate wells. The HTD plate was sealed and incubated for 6 hours at 37 °C. Following incubation, each well (both top and bottom halves) were transferred (20 µL) to the corresponding wells of a 96-shallow-well (V-bottom) plate. The daughter plates were then matrix-matched (DPBS side wells received equal volume of plasma, and plasma side wells received equal volume of DPBS), and extraction solution (120 µL; acetonitrile containing 50 nM carbamazepine as IS) was added to all wells of both daughter plates to precipitate protein and extract test article. The plates were then sealed and centrifuged (3500 rcf) for 10 minutes at ambient temperature. […]
The unbound fraction (f u) was calculated following the equation below, and mean values for each species were calculated from 3 replicates. […] Fraction unbound for both plasma and brain samples was determined using Equation 4.

A further series deals with Kv4.3 (Homo sapiens, UniProt Q9UK17). Kind of series: Cardiac ion channel MPC selectivity panel. The class given is cell-based.
Another series deals with Dopamine D4.2 (Homo sapiens, UniProt P21917, DEL265-296). Kind of series: Eurofins lead profiling screen (radioligand binding).
The target of the next series is Interleukin IL-1 R1 (Homo sapiens, UniProt P14778). Described as above.
Sequence of Interleukin IL-1 R1 (P14778 18-569): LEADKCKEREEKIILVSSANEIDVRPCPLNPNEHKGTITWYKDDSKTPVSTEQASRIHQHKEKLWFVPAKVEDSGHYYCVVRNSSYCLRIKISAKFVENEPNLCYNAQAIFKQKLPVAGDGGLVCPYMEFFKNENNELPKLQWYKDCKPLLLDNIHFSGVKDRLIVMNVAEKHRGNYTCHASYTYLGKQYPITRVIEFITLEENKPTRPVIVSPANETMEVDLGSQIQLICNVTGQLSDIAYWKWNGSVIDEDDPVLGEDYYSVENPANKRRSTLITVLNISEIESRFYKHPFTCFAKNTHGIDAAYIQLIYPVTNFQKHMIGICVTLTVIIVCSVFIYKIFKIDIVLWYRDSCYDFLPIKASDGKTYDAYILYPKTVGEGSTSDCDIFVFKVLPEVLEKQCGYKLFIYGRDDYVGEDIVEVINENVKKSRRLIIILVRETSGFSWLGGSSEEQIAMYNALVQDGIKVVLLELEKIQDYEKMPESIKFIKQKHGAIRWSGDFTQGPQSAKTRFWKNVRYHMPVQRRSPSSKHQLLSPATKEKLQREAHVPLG
Series [3] deals with Glutamate, NMDA, Phencyclidine. Described as above. The arrangement: species or system Rat.
The next series concerns GABAA, Muscimol, Central. The series is described as above. Also on record: species or system Rat.
Another series has as its target Histamine H2 (Homo sapiens, UniProt P25021). The description is as above.
In the next series the target is Endothelin ETB (Homo sapiens, UniProt P24530). The series is described as above.
The subject of a further series is Thyroid Hormone. The series is described as above. Also on record: species or system Rat.
The next series concerns the target Dopamine D2S (Homo sapiens, UniProt P14416). Described as above.
Series [4] deals with Calcium Channel L-Type, Dihydropyridine (Rattus norvegicus, UniProt P22002). Described as above.
Sequence of Calcium Channel L-Type, Dihydropyridine (P22002 whole entry): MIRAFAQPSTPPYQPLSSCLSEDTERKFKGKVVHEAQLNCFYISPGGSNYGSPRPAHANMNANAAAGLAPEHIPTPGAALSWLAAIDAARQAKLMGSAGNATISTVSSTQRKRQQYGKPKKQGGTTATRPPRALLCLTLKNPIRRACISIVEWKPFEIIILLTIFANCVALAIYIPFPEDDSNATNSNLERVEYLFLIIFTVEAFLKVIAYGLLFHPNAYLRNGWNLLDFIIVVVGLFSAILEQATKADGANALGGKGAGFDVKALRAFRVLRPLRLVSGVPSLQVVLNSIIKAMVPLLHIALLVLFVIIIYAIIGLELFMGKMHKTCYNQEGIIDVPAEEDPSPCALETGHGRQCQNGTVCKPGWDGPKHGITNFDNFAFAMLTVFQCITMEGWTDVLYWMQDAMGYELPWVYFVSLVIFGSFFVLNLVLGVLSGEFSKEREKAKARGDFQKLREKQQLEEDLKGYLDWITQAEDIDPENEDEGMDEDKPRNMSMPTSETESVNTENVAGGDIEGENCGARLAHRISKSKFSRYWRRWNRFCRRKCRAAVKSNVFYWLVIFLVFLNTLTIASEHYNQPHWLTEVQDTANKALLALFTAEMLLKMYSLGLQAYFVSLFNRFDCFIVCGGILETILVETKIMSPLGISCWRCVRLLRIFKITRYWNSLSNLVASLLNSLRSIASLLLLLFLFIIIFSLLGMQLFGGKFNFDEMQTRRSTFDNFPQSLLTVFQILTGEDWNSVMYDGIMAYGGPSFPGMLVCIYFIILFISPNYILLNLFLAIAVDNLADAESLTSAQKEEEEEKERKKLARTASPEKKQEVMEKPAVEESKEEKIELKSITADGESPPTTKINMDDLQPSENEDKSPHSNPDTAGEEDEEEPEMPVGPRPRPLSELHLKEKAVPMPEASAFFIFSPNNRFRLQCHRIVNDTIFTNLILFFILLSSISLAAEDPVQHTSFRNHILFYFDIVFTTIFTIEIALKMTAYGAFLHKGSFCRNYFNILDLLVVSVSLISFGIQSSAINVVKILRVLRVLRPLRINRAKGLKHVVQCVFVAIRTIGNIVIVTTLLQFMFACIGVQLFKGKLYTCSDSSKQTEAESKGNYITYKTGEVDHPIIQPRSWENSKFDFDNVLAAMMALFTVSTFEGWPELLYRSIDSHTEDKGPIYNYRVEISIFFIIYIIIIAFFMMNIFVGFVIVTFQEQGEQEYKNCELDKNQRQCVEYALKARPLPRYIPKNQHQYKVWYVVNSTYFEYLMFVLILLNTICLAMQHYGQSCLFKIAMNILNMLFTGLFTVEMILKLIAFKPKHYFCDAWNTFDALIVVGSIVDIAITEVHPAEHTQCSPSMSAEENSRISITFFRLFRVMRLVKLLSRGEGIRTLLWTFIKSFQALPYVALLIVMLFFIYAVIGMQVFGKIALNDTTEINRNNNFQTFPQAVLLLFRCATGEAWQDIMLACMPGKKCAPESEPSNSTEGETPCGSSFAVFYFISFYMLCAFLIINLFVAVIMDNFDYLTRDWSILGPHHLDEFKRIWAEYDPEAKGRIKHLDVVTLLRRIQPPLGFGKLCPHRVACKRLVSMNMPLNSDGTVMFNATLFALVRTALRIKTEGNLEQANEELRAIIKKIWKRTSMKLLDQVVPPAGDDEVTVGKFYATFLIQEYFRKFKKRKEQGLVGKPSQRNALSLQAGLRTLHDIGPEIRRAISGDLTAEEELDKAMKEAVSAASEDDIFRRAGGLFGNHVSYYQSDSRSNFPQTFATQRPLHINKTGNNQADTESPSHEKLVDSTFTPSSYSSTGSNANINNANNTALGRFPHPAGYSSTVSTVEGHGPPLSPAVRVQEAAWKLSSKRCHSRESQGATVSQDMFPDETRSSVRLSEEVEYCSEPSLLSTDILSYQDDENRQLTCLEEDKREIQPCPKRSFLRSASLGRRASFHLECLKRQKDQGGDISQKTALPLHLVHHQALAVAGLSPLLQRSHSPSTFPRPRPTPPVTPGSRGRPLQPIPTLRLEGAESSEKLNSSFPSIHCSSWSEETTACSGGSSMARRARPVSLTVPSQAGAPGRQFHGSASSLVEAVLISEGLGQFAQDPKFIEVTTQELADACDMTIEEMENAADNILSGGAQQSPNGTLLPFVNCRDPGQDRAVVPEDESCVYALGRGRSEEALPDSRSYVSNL
The next series deals with Phorbol Ester. The series is described as above. The arrangement: species or system Mouse.
The next series concerns Imidazoline I2, Central. Described as above. The arrangement: species or system Rat.
The next series concerns the target Sigma σ1 (Homo sapiens, UniProt Q99720). The description is as above.
The next series concerns Nicotinic Acetylcholine. Described as above. The arrangement: species or system Human.
A further series addresses GABAB1A (Homo sapiens, UniProt Q9UBS5). Described as above.
The target of the next series is Bradykinin B2 (Homo sapiens, UniProt P30411). Described as above.
Sequence of Bradykinin B2 (P30411 whole entry): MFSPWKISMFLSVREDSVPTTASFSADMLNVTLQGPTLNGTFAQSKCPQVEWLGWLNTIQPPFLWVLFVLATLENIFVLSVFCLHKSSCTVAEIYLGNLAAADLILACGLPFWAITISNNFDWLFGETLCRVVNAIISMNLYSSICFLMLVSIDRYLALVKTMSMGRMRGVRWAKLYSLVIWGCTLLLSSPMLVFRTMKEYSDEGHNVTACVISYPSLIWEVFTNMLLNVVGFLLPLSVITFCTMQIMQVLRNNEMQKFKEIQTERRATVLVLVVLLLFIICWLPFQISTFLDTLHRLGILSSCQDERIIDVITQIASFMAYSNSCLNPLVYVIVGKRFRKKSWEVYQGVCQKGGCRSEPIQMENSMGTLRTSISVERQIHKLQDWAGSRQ

pIC50: −log10 of the molar value.

Sequence of Histamine H2 (P25021 whole entry): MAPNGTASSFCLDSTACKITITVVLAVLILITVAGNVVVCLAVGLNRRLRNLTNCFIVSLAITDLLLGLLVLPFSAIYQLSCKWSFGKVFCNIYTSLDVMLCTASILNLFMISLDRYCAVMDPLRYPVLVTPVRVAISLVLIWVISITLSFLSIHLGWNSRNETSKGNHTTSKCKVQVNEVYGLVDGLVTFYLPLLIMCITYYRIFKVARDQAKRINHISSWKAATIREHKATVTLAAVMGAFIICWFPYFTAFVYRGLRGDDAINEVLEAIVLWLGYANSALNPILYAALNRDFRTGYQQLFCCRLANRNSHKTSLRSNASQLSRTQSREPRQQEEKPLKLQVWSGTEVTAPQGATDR
Sequence of Sigma σ1 (Q99720 whole entry): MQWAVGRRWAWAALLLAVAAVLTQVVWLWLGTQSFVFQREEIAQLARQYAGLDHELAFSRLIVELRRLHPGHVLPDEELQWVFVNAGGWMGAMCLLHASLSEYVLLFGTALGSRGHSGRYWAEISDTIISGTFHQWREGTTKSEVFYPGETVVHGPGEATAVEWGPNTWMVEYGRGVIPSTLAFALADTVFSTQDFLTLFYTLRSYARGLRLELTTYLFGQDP

With `Cc1cc(C#Cc2ccc(F)cc2)cnc1NC(=O)c1cc(NC(=O)OC(C)(C)C)ccc1Cl` [Compound 14c], the CLint scaled at 1 µM in [1] is 29 mL/min/kg. For the same compound, on TREK-1, the negative-log IC50 (pIC50) is 7.17. Also, the “% at 10 μM, Kv1.5” value on Kv1.5 is listed as less than 50%. In addition, the fraction unbound at 6 h, 5 µM in series [2] was determined as 0.001. For the same compound, the “% at 10 μM, Kv4.3” value on Kv4.3 is reported as less than 50%.

Regarding `O=C(NCc1ccc(OC(F)(F)F)cc1F)c1ccc2ncnn2c1` [ONO-2920632], the inhibition at 10 µM is 5% at Dopamine D4.2; -1% at Interleukin IL-1 R1; -12% on Histamine H2; -6% at Endothelin ETB; -1% at Dopamine D2S; 76% in series [4]. The inhibition at 10 µM on Sigma σ1 is 30%; on GABAB1A, 0%; at Bradykinin B2 it was -10%. The “% Inhibition at 10 µM” value is recorded as -15% in [3]; 2% with GABAA, Muscimol, Central; 3% in the series with Thyroid Hormone; -7% in the series with Phorbol Ester; 10% in the series with Imidazoline I2, Central; -10% with Nicotinic Acetylcholine.

The term pIC50 denotes −log10 of the IC50, conventionally taken in molar units. A lower pIC50 goes with a high IC50. As usually defined, the inhibition is the drop in the measured response relative to a control, in per cent. For orientation: % Inhibition means the drop in the measured response relative to a control, in per cent.

(Values after article PMC12067145 (ACS Medicinal Chemistry Letters, 2025).)
